From patent US10562859B2, “Aryl sulfonamide compounds as carbonic anhydrase inhibitors and their therapeutic use” (SignalChem LifeSciences Corporation, priority 2015, dated 2020)

Legend:
recombinant human CAIX = recombinant human CAIX (Homo sapiens, UniProt Q16790); assay: Stopped-flow CA-catalyzed CO2 hydration assay, CAIX; format: biochemical; conditions: pH 7.4, inhibitor and enzyme pre-incubated 15 minutes at room temperature
Description: (§1) An Applied Photophysics stopped-flow instrument was used for assaying the CA-catalyzed CO2 hydration activity. […] The CO2 concentrations ranged from 1.7 to 17 mM for the determination of the kinetic parameters and inhibition constants. For each inhibitor, at least six traces of the initial 5-10% of the reaction were used for determining the initial velocity. The uncatalyzed rates were determined in the same manner and subtracted from the total observed rates. Stock solutions of inhibitor (10 mM) were prepared in distilled-deionized water, and dilutions up to 0.01 nM were done thereafter with distilled-deionized water. Inhibitor and enzyme solutions were pre-incubated together for 15 minutes at room temperature prior to assay in order to allow for the formation of the E-I complex. The inhibition constants were obtained by nonlinear least-squares methods using PRISM 3, whereas the kinetic parameters for the uninhibited enzymes were from Lineweaver-Burk plots, and represent the mean from at least three different determinations.

recombinant human CAXII = recombinant human CAXII (Homo sapiens, UniProt O43570); assay: Stopped-flow CA-catalyzed CO2 hydration assay, CAXII; format: biochemical; conditions: pH 7.4, inhibitor and enzyme pre-incubated 15 minutes at room temperature
Description: as §1

Chain of recombinant human CAXII (O43570 25-354): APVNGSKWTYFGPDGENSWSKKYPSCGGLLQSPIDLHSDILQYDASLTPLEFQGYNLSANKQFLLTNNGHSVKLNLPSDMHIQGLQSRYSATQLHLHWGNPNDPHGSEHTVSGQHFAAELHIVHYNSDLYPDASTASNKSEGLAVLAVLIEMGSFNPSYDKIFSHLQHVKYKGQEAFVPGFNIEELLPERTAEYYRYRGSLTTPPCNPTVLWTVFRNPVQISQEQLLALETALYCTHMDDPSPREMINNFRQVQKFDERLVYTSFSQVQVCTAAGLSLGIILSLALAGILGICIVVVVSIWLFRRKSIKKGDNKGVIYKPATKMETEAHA

Row | Compound | Ki (nM) CAIX (recombinant human CAIX) | Ki (nM) CAXII (recombinant human CAXII) | Ki (recombinant human CAIX) | Ki (recombinant human CAXII)
1 | NS(=O)(=O)c1ccc(N2CCN(c3cccc(F)c3)C2=O)cc1 [Example 1, 4-(3-(3-fluorophenyl)-2-oxoimidazolidin-1-yl)benzenesulfonamide] | ++ (“++” represents the 100 nM<Ki<10 nM) | ++ (“++” represents the 100 nM<Ki<10 nM) | – | –
2 | Cc1cc(C)cc(N2CCN(c3ccc(S(N)(=O)=O)cc3)C2=O)c1 [Example 2, 4-(3-(3,5-dimethylphenyl)-2-oxoimidazolidin-1-yl)benzenesulfonamide] | ++ (“++” represents the 100 nM<Ki<10 nM) | ++ (“++” represents the 100 nM<Ki<10 nM) | – | –
3 | NS(=O)(=O)c1ccc(N2CCN(C3CCCC3)C2=O)cc1 [Example 4, 4-(3-cyclopentyl-2-oxoimidazolidin-1-yl)benzenesulfonamide] | ++ (“++” represents the 100 nM<Ki<10 nM) | ++ (“++” represents the 100 nM<Ki<10 nM) | – | –
4 | NS(=O)(=O)c1ccc(N2CCN(C3CCCCC3)C2=O)cc1 [Example 5, 4-(3-cyclohexyl-2-oxoimidazolidin-1-yl)benzenesulfonamide] | ++ (“++” represents the 100 nM<Ki<10 nM) | ++ (“++” represents the 100 nM<Ki<10 nM) | – | –
5 | NS(=O)(=O)c1ccc(N2CCN(c3ccc(Br)cc3F)C2=O)cc1 [Example 6, 4-(3-(4-bromo-2-fluorophenyl)-2-oxoimidazolidin-1-yl)benzenesulfonamide] | ++ (“++” represents the 100 nM<Ki<10 nM) | ++ (“++” represents the 100 nM<Ki<10 nM) | – | –
6 | NS(=O)(=O)c1ccc(N2CCN(Cc3ccc(F)cc3)C2=O)cc1 [Example 9, 4-(3-(4-fluorobenzyl)-2-oxoimidazolidin-1-yl)benzenesulfonamide] | ++ (“++” represents the 100 nM<Ki<10 nM) | ++ (“++” represents the 100 nM<Ki<10 nM) | – | –
7 | CCCCOc1ccc(N2CCN(c3ccc(S(N)(=O)=O)cc3)C2=O)cc1 [Example 15, 4-(3-(4-butoxyphenyl)-2-oxoimidazolidin-1-yl)benzenesulfonamide] | – | ++ (“++” represents the 100 nM<Ki<10 nM) | < 10 nM | –
8 | COc1ccc(N2CCN(c3ccc(S(N)(=O)=O)cc3)C2=O)c(F)c1 [Example 25, 4-(3-(2-fluoro-4-methoxyphenyl)-2-oxoimidazolidin-1-yl)benzenesulfonamide] | – | ++ (“++” represents the 100 nM<Ki<10 nM) | < 10 nM | –
9 | CCCCOc1ccc(N2CCN(c3ccc(S(N)(=O)=O)cc3)C2=O)c(F)c1 [Example 26, 4-(3-(4-butoxy-2-fluorophenyl)-2-oxoimidazolidin-1-yl)benzenesulfonamide] | – | ++ (“++” represents the 100 nM<Ki<10 nM) | < 10 nM | –
10 | NS(=O)(=O)c1ccc(N2CCN(c3ccc(Cl)c(F)c3)C2=O)cc1 [Example 27, 4-(3-(4-chloro-3-fluorophenyl)-2-oxoimidazolidin-1-yl)benzenesulfonamide] | – | ++ (“++” represents the 100 nM<Ki<10 nM) | < 10 nM | –
11 | NS(=O)(=O)c1ccc(N2CCN(c3ccc(F)cn3)C2=O)cc1 [Example 28.1, 4-(3-(5-fluoropyridin-2-yl)-2-oxoimidazolidin-1-yl)benzenesulfonamide] | – | – | > 100000 nM | > 100000 nM
12 | CN1CCN(c2ccc(N3CCN(c4ccc(S(N)(=O)=O)cc4)C3=O)c(F)c2)CC1 [Example 28.2, 4-(3-(2-fluoro-4-(4-methylpiperazin-1-yl)phenyl)-2-oxoimidazolidin-1-yl)benzenesulfonamide] | – | – | > 100000 nM | < 10 nM
13 | NS(=O)(=O)c1ccc(N2CCN(c3ccc(N4CCOCC4)cc3F)C2=O)cc1 [Example 28.3, 4-(3-(2-fluoro-4-morpholinophenyl)-2-oxoimidazolidin-1-yl)benzenesulfonamide] | – | – | < 10 nM | < 10 nM

Results, then the molecule that gave them:

Row | Ki (nM) CAIX (recombinant human CAIX) | Ki (nM) CAXII (recombinant human CAXII) | Ki (recombinant human CAIX) | Ki (recombinant human CAXII) | Compound
14 | – | ++ (“++” represents the 100 nM<Ki<10 nM) | < 10 nM | – | COc1cc(N2CCN(c3ccc(S(N)(=O)=O)cc3)C2=O)cc(OC)c1OC [Example 3, 4-(2-oxo-3-(3,4,5-trimethoxyphenyl)imidazolidin-1-yl)benzenesulfonamide]
15 | – | ++ (“++” represents the 100 nM<Ki<10 nM) | < 10 nM | – | NS(=O)(=O)c1ccc(N2CCN(c3ccc(Cl)cc3F)C2=O)cc1 [Example 7, 4-(3-(4-chloro-2-fluorophenyl)-2-oxoimidazolidin-1-yl)benzenesulfonamide]
16 | – | – | < 10 nM | < 10 nM | NS(=O)(=O)c1ccc(N2CCN(c3ccc(C(F)(F)F)cc3)C2=O)cc1 [Example 8, 4-(2-oxo-3-(4-(trifluoromethyl)phenyl)imidazolidin-1-yl)benzenesulfonamide]
17 | – | – | < 10 nM | < 10 nM | NS(=O)(=O)c1ccc(N2CCN(CC3CC3)C2=O)cc1 [Example 10, 4-(3-(cyclopropylmethyl)-2-oxoimidazolidin-1-yl)benzenesulfonamide]
18 | – | – | < 10 nM | < 10 nM | CC(C)c1ccccc1N1CCN(c2ccc(S(N)(=O)=O)cc2)C1=O [Example 11, 4-(3-(2-isopropylphenyl)-2-oxoimidazolidin-1-yl)benzenesulfonamide]
19 | – | – | < 10 nM | < 10 nM | NS(=O)(=O)c1ccc(N2CCN(c3cc(C(F)(F)F)ccc3Cl)C2=O)cc1 [Example 12, 4-(3-(2-chloro-5-(trifluoromethyl)phenyl)-2-oxoimidazolidin-1-yl)benzenesulfonamide]
20 | – | – | < 10 nM | < 10 nM | NS(=O)(=O)c1ccc(N2CCN(c3cc(C(F)(F)F)ccc3F)C2=O)cc1 [Example 13, 4-(3-(2-fluoro-5-(trifluoromethyl)phenyl)-2-oxoimidazolidin-1-yl)benzenesulfonamide]
21 | – | – | < 10 nM | < 10 nM | COCCOc1ccc(N2CCN(c3ccc(S(N)(=O)=O)cc3)C2=O)cc1 [Example 14, 4-(3-(4-(2-methoxyethoxy)phenyl)-2-oxoimidazolidin-1-yl)benzenesulfonamide]
22 | – | – | < 10 nM | < 10 nM | N#Cc1ccc(N2CCN(c3ccc(S(N)(=O)=O)cc3)C2=O)cc1 [Example 16, 4-(3-(4-cyanophenyl)-2-oxoimidazolidin-1-yl)benzenesulfonamide]
23 | – | – | < 10 nM | < 10 nM | CC(=O)c1ccc(N2CCN(c3ccc(S(N)(=O)=O)cc3)C2=O)cc1 [Example 17, 4-(3-(4-acetylphenyl)-2-oxoimidazolidin-1-yl)benzenesulfonamide]
24 | – | ++ (“++” represents the 100 nM<Ki<10 nM) | < 10 nM | – | NS(=O)(=O)c1ccc(N2CCN(c3ccc(F)cc3)C2=O)cc1 [Example 21, 4-(3-(4-fluorophenyl)-2-oxoimidazolidin-1-yl)benzenesulfonamide]
25 | – | ++ (“++” represents the 100 nM<Ki<10 nM) | < 10 nM | – | NS(=O)(=O)c1ccc(N2CCN(c3ccc(F)c(Cl)c3)C2=O)cc1 [Example 22, 4-(3-(3-chloro-4-fluorophenyl)-2-oxoimidazolidin-1-yl)benzenesulfonamide]
26 | – | – | < 10 nM | < 10 nM | NS(=O)(=O)c1ccc(N2CCN(c3cc(F)cc(F)c3)C2=O)cc1 [Example 23, 4-(3-(3,5-difluorophenyl)-2-oxoimidazolidin-1-yl)benzenesulfonamide]
27 | – | ++ (“++” represents the 100 nM<Ki<10 nM) | < 10 nM | – | NS(=O)(=O)c1ccc(N2CCN(c3ccc(F)c(F)c3)C2=O)cc1 [Example 24, 4-(3-(3,4-difluorophenyl)-2-oxoimidazolidin-1-yl)benzenesulfonamide]
